This passage reports mutagenic call results from PubChem BioAssay AID1259407 (Chemical Carcinogenesis Research Information System (CCRIS), 2018).

Active and inactive are the calls of the source. The rule behind the calls is not given here.

The data set deals with CCRIS mutagenicity, Ames/micronucleus/aberration tests. The data set can be described thus: CCRIS mutagenicity studies.
Where [1] appears, read: Test System: AMES SALMONELLA TYPHIMURIUM, Strain/Indicator: TA97, Metabolic Activation: HAMSTER, LIVER, S-9, AROCLOR 1254 (10%), Method: PREINCUBATION
[2] abbreviates: Test System: AMES SALMONELLA TYPHIMURIUM, Strain/Indicator: TA97, Metabolic Activation: HAMSTER, LIVER, S-9, AROCLOR 1254 (30%), Method: PREINCUBATION
[3] abbreviates: Test System: AMES SALMONELLA TYPHIMURIUM, Strain/Indicator: TA97, Metabolic Activation: NONE, Method: PREINCUBATION
The mark [4] stands for this setting: Test System: AMES SALMONELLA TYPHIMURIUM, Strain/Indicator: TA97, Metabolic Activation: RAT, LIVER, S-9, AROCLOR 1254 (10%), Method: PREINCUBATION
The mark [5] stands for this setting: Test System: AMES SALMONELLA TYPHIMURIUM, Strain/Indicator: TA97, Metabolic Activation: RAT, LIVER, S-9, AROCLOR 1254 (30%), Method: PREINCUBATION
The mark [6] stands for this setting: Test System: AMES SALMONELLA TYPHIMURIUM, Strain/Indicator: TA98, Metabolic Activation: HAMSTER, LIVER, S-9, AROCLOR 1254 (10%), Method: PREINCUBATION
Where [7] appears, read: Test System: AMES SALMONELLA TYPHIMURIUM, Strain/Indicator: TA98, Metabolic Activation: NONE, Method: PREINCUBATION
Where [8] appears, read: Test System: AMES SALMONELLA TYPHIMURIUM, Strain/Indicator: TA98, Metabolic Activation: RAT, LIVER, S-9, AROCLOR 1254 (10%), Method: PREINCUBATION
[9] abbreviates: Test System: AMES SALMONELLA TYPHIMURIUM, Strain/Indicator: TA100, Metabolic Activation: HAMSTER, LIVER, S-9, AROCLOR 1254 (10%), Method: PREINCUBATION
Setting [10] is: Test System: AMES SALMONELLA TYPHIMURIUM, Strain/Indicator: TA100, Metabolic Activation: HAMSTER, LIVER, S-9, AROCLOR 1254 (30%), Method: PREINCUBATION
The mark [11] stands for this setting: Test System: AMES SALMONELLA TYPHIMURIUM, Strain/Indicator: TA100, Metabolic Activation: NONE, Method: PREINCUBATION
The mark [12] stands for this setting: Test System: AMES SALMONELLA TYPHIMURIUM, Strain/Indicator: TA100, Metabolic Activation: RAT, LIVER, S-9, AROCLOR 1254 (10%), Method: PREINCUBATION
Where [13] appears, read: Test System: AMES SALMONELLA TYPHIMURIUM, Strain/Indicator: TA100, Metabolic Activation: RAT, LIVER, S-9, AROCLOR 1254 (30%), Method: PREINCUBATION
The mark [14] stands for this setting: Test System: AMES SALMONELLA TYPHIMURIUM, Strain/Indicator: TA1535, Metabolic Activation: HAMSTER, LIVER, S-9, AROCLOR 1254 (10%), Method: PREINCUBATION
Setting [15] is: Test System: AMES SALMONELLA TYPHIMURIUM, Strain/Indicator: TA1535, Metabolic Activation: NONE, Method: PREINCUBATION
Setting [16] is: Test System: AMES SALMONELLA TYPHIMURIUM, Strain/Indicator: TA1535, Metabolic Activation: RAT, LIVER, S-9, AROCLOR 1254 (10%), Method: PREINCUBATION

For `C1=C\CC/C=C\CC/1.C1=C\CC/C=C\CC/1.[Ni]`, the mutagenic call under setting [1] is “inactive; negative”; the mutagenic call under setting [2] was “inactive; negative”; the mutagenic call under setting [3] was “inactive; negative”; the mutagenic call under setting [4] was “inactive; negative”; the mutagenic call under setting [5] was “inactive; negative”; the mutagenic call under setting [6] is “inactive; negative”. Besides, the mutagenic call reads like this: under setting [7], “inactive; negative”; under setting [8], “inactive; negative”; under setting [9], “inactive; negative”; under setting [10], “inactive; negative”; under setting [11], “inactive; negative”; under setting [12], “active; positive”. Moreover, the mutagenic call was “inactive; negative” under setting [13]; “inactive; negative” under setting [14]; “inactive; negative” under setting [15]; “inactive; negative” under setting [16]; “inactive; negative” (Test System: Ames Salmonella typhimurium, Strain/Indicator: TA100, Metabolic Activation: None, Method: Preincubation); “inactive; negative” (Test System: Ames Salmonella typhimurium, Strain/Indicator: TA100, Metabolic Activation: Rat, Liver, S9, Phenobarbital and 5,6-benzoflavone, Method: Preincubation). Moreover, the mutagenic call runs as follows: (Test System: Ames Salmonella typhimurium, Strain/Indicator: TA102, Metabolic Activation: None, Method: Preincubation) “inactive; negative”; (Test System: Ames Salmonella typhimurium, Strain/Indicator: TA102, Metabolic Activation: Rat, Liver, S9, Phenobarbital and 5,6-benzoflavone, Method: Preincubation) “inactive; negative”.
Regarding `CCCCCC`, the mutagenic call under setting [3] is “inactive; negative”; the mutagenic call (Test System: AMES SALMONELLA TYPHIMURIUM, Strain/Indicator: TA97, Metabolic Activation: RAT, LIVER, S-9, AROCLOR 1254, Method: PREINCUBATION) was “inactive; negative”; the mutagenic call under setting [6] was “inactive; negative”; the mutagenic call under setting [7] was “inactive; negative”; the mutagenic call under setting [8] was “inactive; negative”; the mutagenic call under setting [9] was “inactive; negative”. Further, the mutagenic call under setting [11] was “inactive; negative”; the mutagenic call under setting [12] was “inactive; negative”; the mutagenic call (Test System: AMES SALMONELLA TYPHIMURIUM, Strain/Indicator: TA102, Metabolic Activation: NONE, Method: PREINCUBATION) is “inactive; negative”; the mutagenic call (Test System: AMES SALMONELLA TYPHIMURIUM, Strain/Indicator: TA102, Metabolic Activation: RAT, LIVER, S-9, AROCLOR 1254, Method: PREINCUBATION) was “inactive; negative”; the mutagenic call under setting [14] is “inactive; negative”; the mutagenic call under setting [15] was “inactive; negative”. Moreover, the mutagenic call by setting is: under setting [16], “inactive; negative”; (Test System: AMES SALMONELLA TYPHIMURIUM, Strain/Indicator: TA1537, Metabolic Activation: HAMSTER, LIVER, S-9, AROCLOR 1254 (10%), Method: PREINCUBATION) “inactive; negative”; (Test System: AMES SALMONELLA TYPHIMURIUM, Strain/Indicator: TA1537, Metabolic Activation: NONE, Method: PREINCUBATION) “inactive; negative”; (Test System: AMES SALMONELLA TYPHIMURIUM, Strain/Indicator: TA1537, Metabolic Activation: RAT, LIVER, S-9, AROCLOR 1254 (10%), Method: PREINCUBATION) “inactive; negative”.
For the compound `CCCCC(CC)CNCC(CC)CCCC` (stereo unspecified), the mutagenic call reads like this: under setting [1], “inactive; negative”; under setting [2], “inactive; negative”; under setting [3], “inactive; negative”; under setting [4], “inactive; negative”; under setting [5], “inactive; negative”; under setting [6], “inactive; negative”. For the same compound, the mutagenic call is “inactive; negative” (Test System: AMES SALMONELLA TYPHIMURIUM, Strain/Indicator: TA98, Metabolic Activation: HAMSTER, LIVER, S-9, AROCLOR 1254 (30%), Method: PREINCUBATION); “inactive; negative” under setting [7]; “inactive; negative” under setting [8]; “inactive; negative” (Test System: AMES SALMONELLA TYPHIMURIUM, Strain/Indicator: TA98, Metabolic Activation: RAT, LIVER, S-9, AROCLOR 1254 (30%), Method: PREINCUBATION); “inactive; negative” under setting [9]; “inactive; negative” under setting [10]. For the same compound, the mutagenic call reads like this: under setting [11], “inactive; negative”; under setting [12], “inactive; negative”; under setting [13], “inactive; negative”; under setting [14], “inactive; negative”; (Test System: AMES SALMONELLA TYPHIMURIUM, Strain/Indicator: TA1535, Metabolic Activation: HAMSTER, LIVER, S-9, AROCLOR 1254 (30%), Method: PREINCUBATION) “inactive; negative”; under setting [15], “inactive; negative”. Also, the mutagenic call is, setting by setting: under setting [16], “inactive; negative”; (Test System: AMES SALMONELLA TYPHIMURIUM, Strain/Indicator: TA1535, Metabolic Activation: RAT, LIVER, S-9, AROCLOR 1254 (30%), Method: PREINCUBATION) “inactive; negative”.
